Laboratory results published in publication PMC9304322, “Targeting retinoic acid receptor alpha-corepressor interaction activates chaperone-mediated autophagy and protects against retinal degeneration” (Nature Communications, 2022).
Values joined by “and” are separate entries in the source; they are usually repeats but may differ in a detail not shown here. Equal values may be shown once.

What was measured:
[1] = system: NIH3T3 cells control (empty vector) or knock-down (KD) for N-CoR1; assay: CMA activity in NIH3T3 control or knock-down for N-CoR1; type: cell-based, mouse; set-up: CMA activity: unit not given here; conditions: for activating effect on CMA upon knock-down of NCOR1: 20μM for 24 h; for CMA activity: Fig. 2h, individual replicate values
Procedure: NIH3T3 mouse fibroblasts (CRL-1658), CaCo2 cells human colorectal adenocarcinoma (HTB-3), and the N2a neuroblastoma cell line (CCL-131) were obtained from the American Type Culture Collection and were validated by genomic PCR. Primary human fibroblasts (GM01651) were from Coriell Repository. Cells were cultured to full confluence in a 37 °C incubator with 5% CO2 in complete Dulbecco’s modified Eagle’s medium (DMEM, Sigma #D5030) supplemented with 10% heat-inactivated newborn calf serum (HyClone #SH30401.02HI), 1% penicillin/streptomycin/fungizone (Invitrogen, #10072322). All the cell lines were tested for mycoplasma contamination using DNA staining protocol with Hoechst 33258 dye and none of them was found positive. Knock-down of Ncor1 was done using lentiviral mediated shRNA (SHCLNG-NM_011308) from the Sigma Mission library following standard procedures. The efficiency of knock-down was tested by immunoblot. Cell viability was measured using the CellTiter-Blue kit (Promega, #G9241) 24 h after the addition of the different stressors according to the manufacturer’s instructions. All cell lines were validated by genomic PCR.
Cells were transduced with lentivirus carrying the KFERQ-PS-Dendra reporter as before. Cells were photoactivated by exposure to a 3.5 mA (current constant) light emitting diode (LED: Norlux, 405 nm) for 3 min and then plated in glass-bottom 96 well plates. At the desired times, cells were fixed with 4% PFA and imaged using high-content microscopy (Operetta system, Perkin Elmer). Images were quantified using the manufacturer’s software in a minimum of 1,200 cells in 9 independent fields per well. […] This was particularly important in the case of primary human cells where the efficiency of transduction was ~65%. To avoid confounding effects for drug-induced changes in cell volume or adherence to the plate that could bring a fraction of the cells per field outside of focus, we set a threshold to count only […] that have at least 1/10 of the average number of […] detected in the untreated wells for each cell type (3–4 puncta/cell in the case of NIH3T3 and N2a cells and 5 puncta/cell in primary human fibroblasts).

[2] = biological target: T1, RARα and the N-CoR1 peptide (Homo sapiens, UniProt P10276); assay: Fluorescence polarization binding assay, RARα LBD and FITC-N-CoR1 peptide; conditions: 10 μΜ compound
T1 construct: human RARα (residues 176-421); His6-SUMO (N, cleaved yes); made in house; host or cells: Escherichia coli BL21(DE3) RIL
Procedure: The ligand binding domain (LBD) of the human RARα (residues 176-421) was fused to a preceding His6-SUMO tag separated by a ubiquitin-like protease (ULP1) cleavage site and was expressed in Escherichia coli BL21(DE3) RIL cell strain. Cells were grown at 37 °C in LB medium supplemented with 50 µg/mL kanamycin until OD600 reached about 0.8. Expression of T7 polymerase was induced by addition of isopropyl-b-d-thiogalactoside (IPTG, #10724815001) to a final concentration of 0.8 mM and cells were incubated at 20 °C overnight. Cell cultures were harvested by centrifugation at 8,000 × g for 15 mins. The cell pellet from 1 liter of LB growth was resuspended in 50 mL lysis buffer (20 mM Tris-HCl pH 8, 500 mM NaCl, 25 mM imidazole) supplemented with one complete™, EDTA-free protease inhibitor tablet (Roche Applied Science, #11873580001). The suspension was lysed using a high pressure homogenizer and centrifuged at 35,000 × g at 4 °C for 45 minutes. […]
The fluorescein-tagged peptide of N-CoR1, FITC-Ahx-[…] […] Fluorescence polarization assays (FPA) were performed using established procedures. […] Fluorescence polarization was measured at 30 min on a F200 PRO microplate reader (TECAN) with the excitation wavelength set at 470 nm and emission measured at 530 nm. EC50 values were calculated by nonlinear regression analysis of competitive binding curves using GraphPad Prism software.

T1 sequence (P10276 176-421, other chains not shown): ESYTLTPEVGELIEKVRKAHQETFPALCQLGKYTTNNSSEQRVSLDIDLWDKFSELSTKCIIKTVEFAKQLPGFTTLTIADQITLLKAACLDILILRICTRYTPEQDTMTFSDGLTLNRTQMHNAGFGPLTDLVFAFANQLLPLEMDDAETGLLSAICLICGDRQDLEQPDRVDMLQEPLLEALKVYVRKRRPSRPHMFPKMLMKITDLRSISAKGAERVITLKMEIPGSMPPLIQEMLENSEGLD

CC(=O)Nc1ccc(C2=Nc3ccc(Cl)cc3OC2)cc1 [CA77] was tested, and the “activating effect on CMA upon knock-down of NCOR1” value [1] was “completely ablated”, the CMA activity ([1]; Ctr cells) was 22.4 and 17.9 and 26.0 and the CMA activity ([1]; NCOR(-) (NCoR1 KD) cells) was 4.3 and 4.0 and 4.8. For the same compound, the “N-CoR1 peptide binding to RARα in fluorescence polarization assays” value [2] was “enhanced N-CoR1 peptide binding to RARα”.
Clc1ccc2c(c1)OCC(c1ccc(-c3ccccc3)cc1)=N2 [CA39] was tested, and the “activating effect on CMA upon knock-down of NCOR1” value [1] was “completely ablated”, the CMA activity ([1]; Ctr cells) was 28.3 and 30.0 and 31.5 and the CMA activity ([1]; NCOR(-) (NCoR1 KD) cells) was 3.7 and 5.0 and 5.1. For the same compound, the “N-CoR1 peptide binding to RARα in fluorescence polarization assays” value [2] was “enhanced N-CoR1 peptide binding to RARα”.
